Where two headings read alike, the source gives them in different places.
Legend:
[1] = tested on: MDA-MB-468; experiment: 13C3 Serine Assay MDA-MB-468 (13C3 serine levels by LC/MS/MS); format: cell-based; details: Homo sapiens
Experimental: Cells are cultivated in Medium I in a 75 mL flask.
Day 1: 5000 cells in 180 μL Medium I/well were seeded into a 96-well plate. Plates were incubated at 37° C. in a 5% CO2 incubator overnight.
Day 2: 10 mM DMSO stock from test compounds were serially pre-diluted with Medium I (See dilution scheme: for the first well 20 μL DMSO stock are diluted with 180 μL Medium I. From this 1000 μM solution further seven 1:3 (1+2) dilution are prepared with Medium I). 20 μL of these pre-dilutions are transferred in duplicates to the 96-well plate of Day 1. After incubation at 37° C. in a CO2 incubator for 1 hour the medium was removed, 100 μL PBS (tempered to room temperature) added and subsequently removed again.
180 μL Medium II were then added per well and 20 μL of serial dilutions of test compounds in Medium II (as described before) were transferred per well as above. After 180 minutes incubation at 37° C. in a CO2 incubator the medium was again cautiously removed.
After the addition of 100 μL methanol: H2O (80:20, v:v, pre-cooled to −80° C.) the plates were sealed immediately and frozen at −80° C.
At day of measurement plates were thawn, centrifuged and the supernatant evaporated. The samples were resuspended in 100 μl water for tandem mass spectrometry.
^13C3 serine levels were analyzed with LC/MS/MS using Multiple Reaction Monitoring (MRM).
IC50 values were computed from these values using a 4 parametric logistic model.

[2] = molecular target: PHGDH (Homo sapiens (Human), UniProt O43175); experiment: 3-Phosphoglycerate Dehydrogenase (PHGDH) Fluorescence Intensity Assay, run at two NAD/3-PG ratios: PHGDH_HIGH_NAD/3-PG (250 μM NAD/500 μM 3-PG) and PHGDH_500_NAD/3-PG (500 μM NAD/500 μM 3-PG); format: biochemical
Chain of PHGDH (O43175 2-533 limits assumed): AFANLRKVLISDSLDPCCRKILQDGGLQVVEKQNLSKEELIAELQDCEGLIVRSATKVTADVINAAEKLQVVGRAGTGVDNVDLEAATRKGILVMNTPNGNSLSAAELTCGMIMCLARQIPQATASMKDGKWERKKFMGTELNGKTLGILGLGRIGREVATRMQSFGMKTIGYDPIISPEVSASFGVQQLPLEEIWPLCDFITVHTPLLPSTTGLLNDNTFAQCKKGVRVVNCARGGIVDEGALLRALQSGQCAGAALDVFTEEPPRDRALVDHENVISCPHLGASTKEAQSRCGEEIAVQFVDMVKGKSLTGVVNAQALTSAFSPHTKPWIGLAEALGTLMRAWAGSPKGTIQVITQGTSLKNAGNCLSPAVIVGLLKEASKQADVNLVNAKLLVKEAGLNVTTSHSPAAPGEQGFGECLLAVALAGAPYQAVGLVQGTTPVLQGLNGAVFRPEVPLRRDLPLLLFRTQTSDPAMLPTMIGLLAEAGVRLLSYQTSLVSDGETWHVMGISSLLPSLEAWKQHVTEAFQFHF
Text: This assay is used to identify compounds which inhibit the enzymatic activity of PHGDH which catalyzes the reaction of 3-Phosphoglycerate (3-PG) and NAD to 3-Phosphohydroxypyruvate and NADH.
The produced NADH is used in a coupled reaction for Diaphorase mediated reduction of Resazurin to Resorufin which can be measured in a Fluorescence Intensity readout.
The full length version of PHGDH enzyme was expressed in E. coli with an N-terminal HIS-tag and a TEV cleavage site.
The 3-Phosphoglycerate substrate was purchased from Sigma. NAD, Diaphorase and Resazurin were purchased from Sigma Aldrich.
Compounds are dispensed onto assay plates (black, low volume, flat bottom 384 well, Corning) using an Access Labcyte Workstation with the Labcyte Echo 55× from a DMSO solution. For the chosen highest assay concentration of 100 μM, 150 nl of compound solution are transferred from a 10 mM DMSO compound stock solution. A series of 11 concentrations (10 1:5 steps) is transferred for each compound.
The assay has been performed at two different NAD/3-PG ratios (final assay concentrations):
Plates are kept at room temperature. After 240 minutes incubation time the fluorescence signal is measured in a PerkinElmer Envision HTS Multilabel Reader with an excitation wavelength at 530-560 nm and an emission wavelength at 590 nm.
Each plate contains negative controls (diluted DMSO instead of test compound; reaction as described with PHGDH protein) and positive controls (diluted DMSO instead of test compound; reaction as described with buffer instead of PHGDH protein). Negative and positive control values are used for normalization.
IC50 values are calculated and analyzed in the MEGALAB IC50 application using a 4 parametric logistic model.

[3] = MDA-MB-468 cells, 13C3 serine levels by LC/MS/MS, read-out: IC50 (13CSERINE)
[4] = 250 μM NAD/500 μM 3-PG, read-out: IC50 (PHGDH_HIGH_NAD/3-PG)
[5] = MDA-MB-468, read-out: IC50 (13CSERINE)
[6] = 500 μM NAD/500 μM 3-PG, read-out: IC50 (PHGDH_500_NAD/3-PG)

For `COC(=O)CS(=O)(=O)c1ccc([C@@H](C)NC(=O)c2cc(-c3ccccc3)nn2C)cn1` [Example 02-010, methyl 2-({5-[(1R)-1-[(1-methyl-3-phenyl-1H-pyrazol-5-yl)formamido]ethyl]pyridin-2-yl}sulfonyl)acetate], the IC50 [1, 3] was 594 nM and the IC50 [2, 4] was 3690 nM.
`CC(C)OC(=O)CS(=O)(=O)c1ccc([C@@H](C)NC(=O)c2cc(-c3ccccc3)nn2C)cc1` [Example 02-011, propan-2-yl 2-{4-[(1R)-1-[(1-methyl-3-phenyl-1H-pyrazol-5-yl)formamido]ethyl]benzenesulfonyl}acetate] was tested, and the IC50 [1, 3] was 135 nM and the IC50 [2, 4] was 6720 nM.
`Cc1cc(Cl)c2cc(C(=O)N[C@H](CO)c3ccc(S(=O)(=O)CC(=O)O)cc3)n(C)c2c1` [Example 03-002, 2-{4-[(1S)-1-[(4-chloro-1,6-dimethyl-1H-indol-2-yl)formamido]-2-hydroxyethyl]benzenesulfonyl}acetic acid] showed an IC50 [1, 5] of 1380 nM and an IC50 [2, 4] of 6 nM.
`Cc1cc2c(cc(C(=O)N[C@H](C)c3ccc(S(=O)(=O)CC(=O)O)cc3)n2C)c(Cl)c1Cl` [Example 03-005, 2-{4-[(1R)-1-[(4,5-dichloro-1,6-dimethyl-1H-indol-2-yl)formamido]ethyl]benzenesulfonyl}acetic acid] gave an IC50 [1, 5] of 1070 nM, an IC50 [2, 4] of 4 nM and an IC50 [2, 6] of 9 nM.
In the case of `Cc1cc2c(cc(C(=O)N[C@H](CO)c3ccc(S(=O)(=O)CC(=O)O)cc3)n2C)c(Cl)c1Cl` [Example 03-006, 2-{4-[(1S)-1-[(4,5-dichloro-1,6-dimethyl-1H-indol-2-yl)formamido]-2-hydroxyethyl]benzenesulfonyl}acetic acid], the IC50 [1, 5] is reported as 203 nM, the IC50 [2, 4] is reported as 3 nM and the IC50 [2, 6] is reported as 4 nM.
Work on `Cc1cc(Cl)c2cc(C(=O)N[C@H](C)c3ccc(S(=O)(=O)CC(=O)O)cc3)n(C)c2c1` [Example 03-009, 2-{4-[(1R)-1-[(4-chloro-1,6-dimethyl-1H-indol-2-yl)formamido]ethyl]benzenesulfonyl}acetic acid] yielded an IC50 [1, 5] of 3570 nM and an IC50 [2, 4] of 8 nM.
`Cc1nc2c(cc(C(=O)N[C@H](CO)c3ccc(S(=O)(=O)CC(=O)O)cc3)n2C)c(Cl)c1Cl` [Example 03-011, 2-{4-[(1S)-1-({4,5-dichloro-1,6-dimethyl-1H-pyrrolo[2,3-b]pyridin-2-yl}formamido)-2-hydroxyethyl]benzenesulfonyl}acetic acid] was tested, and the IC50 [1, 3] was 2000 nM and the IC50 [2, 4] was 9 nM.
`Cc1cc(Cl)c2cc(C(=O)N[C@H](C)c3ccc(S(=O)(=O)C(C)C(=O)OC(C)(C)C)cc3)n(C)c2c1` (stereo partly drawn) [Example 05-001, tert-butyl 2-{4-[(1R)-1-[(4-chloro-1,6-dimethyl-1H-indol-2-yl)formamido]ethyl]benzenesulfonyl}propanoate] showed an IC50 [1, 3] of 891 nM and an IC50 [2, 4] of 24400 nM.
In the case of `CCOC(=O)C(C)(C)S(=O)(=O)c1ccc([C@@H](C)NC(=O)c2cc3c(Cl)cc(C)cc3n2C)cc1` [Example 05-003, ethyl 2-{4-[(1R)-1-[(4-chloro-1,6-dimethyl-1H-indol-2-yl)formamido]ethyl]benzenesulfonyl}-2-methylpropanoate], the IC50 [1, 3] is reported as 30.2 nM and the IC50 [2, 4] is reported as 15900 nM.
Work on `Cc1cc(Cl)c2cc(C(=O)N[C@H](C)c3ccc(S(=O)(=O)C(C)C(=O)OC(C)C)cc3)n(C)c2c1` (stereo partly drawn) [Example 05-004, propan-2-yl 2-{4-[(1R)-1-[(4-chloro-1,6-dimethyl-1H-indol-2-yl)formamido]ethyl]benzenesulfonyl}propanoate] yielded an IC50 [1, 3] of 10.1 nM and an IC50 [2, 4] of 11800 nM.
Compound `COCCC(C(=O)OC)S(=O)(=O)c1ccc([C@@H](C)NC(=O)c2cc3c(Cl)cc(C)cc3n2C)cc1` (stereo partly drawn) [Example 05-005, methyl 2-{4-[(1R)-1-[(4-chloro-1,6-dimethyl-1H-indol-2-yl)formamido]ethyl]benzenesulfonyl}-4-methoxybutanoate] has an IC50 [1, 3] of 831 nM and an IC50 [2, 4] of 652 nM.
Compound `COC(=O)C(C)S(=O)(=O)c1ccc([C@@H](C)NC(=O)c2cc3c(Cl)cc(C)cc3n2C)cc1` (stereo partly drawn) [Example 05-009, methyl 2-{4-[(1R)-1-[(4-chloro-1,6-dimethyl-1H-indol-2-yl)formamido]ethyl]benzenesulfonyl}propanoate] has an IC50 [1, 3] of 1.6 nM and an IC50 [2, 4] of 1680 nM.
`COC(=O)C1(S(=O)(=O)c2ccc([C@@H](C)NC(=O)c3cc4c(Cl)cc(C)cc4n3C)cc2)CCOCC1` [Example 05-010, methyl 4-{4-[(1R)-1-[(4-chloro-1,6-dimethyl-1H-indol-2-yl)formamido]ethyl]benzenesulfonyl}oxane-4-carboxylate] gave an IC50 [1, 3] of 3.7 nM and an IC50 [2, 4] of 11200 nM.
For `CCOC(=O)C(C)S(=O)(=O)c1ccc([C@@H](C)NC(=O)c2cc3c(Cl)cc(C)cc3n2C)cc1` (stereo partly drawn) [Example 05-011, ethyl 2-{4-[(1R)-1-[(4-chloro-1,6-dimethyl-1H-indol-2-yl)formamido]ethyl]benzenesulfonyl}propanoate], the IC50 [1, 3] was 3.9 nM and the IC50 [2, 4] was 5020 nM.
In the case of `Cc1cc(Cl)c2cc(C(=O)N[C@H](C)c3ccc(S(=O)(=O)C(C)(C)C(=O)OC(C)C)cc3)n(C)c2c1` [Example 05-012, propan-2-yl 2-{4-[(1R)-1-[(4-chloro-1,6-dimethyl-1H-indol-2-yl)formamido]ethyl]benzenesulfonyl}-2-methylpropanoate], the IC50 [1, 3] is reported as 906 nM and the IC50 [2, 4] is reported as 25100 nM.
Work on `CCC(C(=O)OC)S(=O)(=O)c1ccc([C@@H](C)NC(=O)c2cc3c(Cl)cc(C)cc3n2C)cc1` (stereo partly drawn) [Example 05-013, methyl 2-{4-[(1R)-1-[(4-chloro-1,6-dimethyl-1H-indol-2-yl)formamido]ethyl]benzenesulfonyl}butanoate] yielded an IC50 [1, 3] of 166 nM and an IC50 [2, 4] of 5530 nM.
Work on `COC(=O)C(C)(C)S(=O)(=O)c1ccc([C@@H](CO)NC(=O)c2cc3c(Cl)c(Cl)c(C)cc3n2C)cc1` [Example 05-017, methyl 2-{4-[(1S)-1-[(4,5-dichloro-1,6-dimethyl-1H-indol-2-yl)formamido]-2-hydroxyethyl]benzenesulfonyl}-2-methylpropanoate] yielded an IC50 [1, 3] of 0.3 nM, an IC50 [2, 4] of 1230 nM and an IC50 [2, 6] of 2960 nM.
With `COCCOC(=O)C(C)(C)S(=O)(=O)c1ccc([C@@H](C)NC(=O)c2cc3c(Cl)c(Cl)c(C)nc3n2C)cc1` [Example 05-018, 2-methoxyethyl 2-{4-[(1R)-1-({4,5-dichloro-1,6-dimethyl-1H-pyrrolo[2,3-b]pyridin-2-yl}formamido)ethyl]benzenesulfonyl}-2-methylpropanoate] the IC50 [1, 3] was 142 nM and the IC50 [2, 4] was 5330 nM.
With `COC(=O)C1(S(=O)(=O)c2ccc([C@@H](C)NC(=O)c3cc4c(Cl)cc(C)cc4n3C)cc2)CC1` [Example 05-019, methyl 1-{4-[(1R)-1-[(4-chloro-1,6-dimethyl-1H-indol-2-yl)formamido]ethyl]benzenesulfonyl}cyclopropane-1-carboxylate] the IC50 [1, 3] was 509 nM and the IC50 [2, 4] was 5310 nM.
`COC(=O)C1(S(=O)(=O)c2ccc([C@@H](C)NC(=O)c3cc(-c4ccc(F)cc4)nn3C)cc2)CCOCC1` [Example 06-001, methyl 4-{4-[(1R)-1-{[3-(4-fluorophenyl)-1-methyl-1H-pyrazol-5-yl]formamido}ethyl]benzenesulfonyl}oxane-4-carboxylate] showed an IC50 [1, 3] of 25400 nM and an IC50 [2, 4] of 7700 nM.
`COC(=O)C(C)(C)S(=O)(=O)c1ccc([C@@H](C)NC(=O)c2cc(-c3ccc(F)cc3)nn2C)cc1` [Example 06-002, methyl 2-{4-[(1R)-1-{[3-(4-fluorophenyl)-1-methyl-1H-pyrazol-5-yl]formamido}ethyl]benzenesulfonyl}-2-methylpropanoate] gave an IC50 [1, 3] of 1880 nM and an IC50 [2, 4] of 14700 nM.
For `Cc1cc(Cl)c2cc(C(=O)N[C@H](C)c3ccc(S(=O)(=O)C4(C(=O)O)CCOCC4)cc3)n(C)c2c1` [Example 07-002, 4-{4-[(1R)-1-[(4-chloro-1,6-dimethyl-1H-indol-2-yl)formamido]ethyl]benzenesulfonyl}oxane-4-carboxylic acid], the IC50 [1, 3] was 6900 nM and the IC50 [2, 4] was 7 nM.
Compound `Cc1cc(Cl)c2cc(C(=O)N[C@H](C)c3ccc(S(=O)(=O)C(C)(C)C(=O)O)cc3)n(C)c2c1` [Example 07-005, 2-{4-[(1R)-1-[(4-chloro-1,6-dimethyl-1H-indol-2-yl)formamido]ethyl]benzenesulfonyl}-2-methylpropanoic acid] has an IC50 [1, 3] of 1190 nM and an IC50 [2, 4] of 12 nM.
`CCCC(C(=O)O)S(=O)(=O)c1ccc([C@@H](C)NC(=O)c2cc3c(Cl)cc(C)cc3n2C)cc1` (stereo partly drawn) [Example 07-012, 2-{4-[(1R)-1-[(4-chloro-1,6-dimethyl-1H-indol-2-yl)formamido]ethyl]benzenesulfonyl}pentanoic acid] showed an IC50 [1, 3] of 2390 nM, an IC50 [2, 4] of 6 nM and an IC50 [2, 6] of 16 nM.
`CCOCCOCCOC(=O)CS(=O)(=O)c1ccc([C@@H](C)NC(=O)c2cc3c(Cl)cc(C)cc3n2C)cc1` [Example 09-001, 2-(2-ethoxyethoxy)ethyl 2-{4-[(1R)-1-[(4-chloro-1,6-dimethyl-1H-indol-2-yl)formamido]ethyl]benzenesulfonyl}acetate] was tested, and the IC50 [1, 3] was 53.8 nM and the IC50 [2, 4] was 289 nM.
`CC(=O)OCCOC(=O)CS(=O)(=O)c1ccc([C@@H](C)NC(=O)c2cc3c(Cl)cc(C)cc3n2C)cc1` [Example 09-002, 2-(acetyloxy)ethyl 2-{4-[(1R)-1-[(4-chloro-1,6-dimethyl-1H-indol-2-yl)formamido]ethyl]benzenesulfonyl}acetate] was tested, and the IC50 [1, 3] was 69 nM and the IC50 [2, 4] was 230 nM.
For `COCCOC(=O)CS(=O)(=O)c1ccc([C@@H](C)NC(=O)c2cc3c(Cl)c(Cl)c(C)nc3n2C)cc1` [Example 09-003, 2-methoxyethyl 2-{4-[(1R)-1-({4,5-dichloro-1,6-dimethyl-1H-pyrrolo[2,3-b]pyridin-2-yl}formamido)ethyl]benzenesulfonyl}acetate], the IC50 [1, 3] was 82.8 nM and the IC50 [2, 4] was 286 nM.
Compound `CO[C@@H](C)COC(=O)CS(=O)(=O)c1ccc([C@@H](C)NC(=O)c2cc3c(Cl)cc(C)cc3n2C)cc1` [Example 09-004, (2S)-2-methoxypropyl 2-{4-[(1R)-1-[(4-chloro-1,6-dimethyl-1H-indol-2-yl)formamido]ethyl]benzenesulfonyl}acetate] has an IC50 [1, 3] of 78.6 nM and an IC50 [2, 4] of 394 nM.
